Measurements as given in patent US8067613B2 (Abbott Laboratories, priority 2007, dated 2011).

Molecular target: T1, Recombinant Human Poly(ADP-Ribose)Polymerase (PARP), PARP-1 (Homo sapiens, UniProt P09874)
T1 construct: purchased Trevigen (Gaithersburg, Md.); host or cells: E. coli
Experiment: PARP1 assay (SPA/FlashPlate, [3H]-NAD+ incorporation into biotinylated histone H1)
Type: biochemical
Details: 1 nM PARP enzyme, 1.5 μM [3H]-NAD+, 200 nM biotinylated histone H1, 200 nM slDNA; Ki from inhibition curves at various substrate concentrations
Procedure: Nicotinamide[2,5′,8-3H]adenine dinucleotide and strepavidin SPA beads were obtained from Amersham Biosiences (UK). Recombinant Human Poly(ADP-Ribose)Polymerase (PARP), purified from E. coli and 6-Biotin-17-NAD^+, were obtained from Trevigen (Gaithersburg, Md.). NAD^+, histone, aminobenzamide, 3-aminobenzamide and Calf Thymus DNA (dcDNA) were obtained from Sigma (St. Louis, Mo.). Stem loop oligonucleotide containing MCAT sequence was obtained from Qiagen. The oligos were dissolved to 1 mM in annealing buffer containing 10 mM Tris HCl (pH 7.5), 1 mM EDTA, and 50 mM NaCl, incubated for 5 minutes at 95° C. and annealed at 45° C. for 45 minutes. Histone H1 (95% electrophoretically pure) was obtained from Roche (Indianapolis, Ind. Biotinylated histone H1 was prepared by treating the protein with Sulfo-NHS-LC-Biotin (Pierce Rockford, Ill.). The biotinylation reaction was conducted by slowly and intermittently adding 3 equivalents of 10 mM Sulfo-NHS-LC-Biotin to 100 μM Histone H1 in phosphate-buffered saline, pH 7.5, at 4° C. with gentle vortexing over 1 minute then incubation at 4° C. for 1 hour. Streptavidin coated (FlashPlate Plus) microplates were obtained from Perkin Elmer (Boston, Mass.).
PARP1 assay was conducted in PARP assay buffer containing 50 mM tris (pH 8.0), 1 mM DTT and 4 mM MgCl2. PARP reactions contained 1.5 μM [^3H]-NAD^+ (1.6 μCi/mmol), 200 nM biotinylated histone H1, 200 nM slDNA, and 1 nM PARP enzyme. Auto reactions utilizing SPA bead-based detection were carried out in 100 μL volumes in white 96 well plates.
Reactions were initiated by adding 50 μL of 2×NAD^+ substrate mixture to 50 μL of 2× enzyme mixture containing PARP and DNA. These reactions were terminated by the addition of 150 μL of 1.5 mM benzamide (1000-fold over its IC50). 170 μL of the stopped reaction mixtures were transferred to streptavidin Flash Plates, incubated for 1 hour and counted using a TopCount microplate scintillation counter. The Ki data (in nM) for representative compounds of this invention were determined from inhibition curves at various substrate concentrations and are shown in TABLE 1.

T1 sequence (P09874 whole entry): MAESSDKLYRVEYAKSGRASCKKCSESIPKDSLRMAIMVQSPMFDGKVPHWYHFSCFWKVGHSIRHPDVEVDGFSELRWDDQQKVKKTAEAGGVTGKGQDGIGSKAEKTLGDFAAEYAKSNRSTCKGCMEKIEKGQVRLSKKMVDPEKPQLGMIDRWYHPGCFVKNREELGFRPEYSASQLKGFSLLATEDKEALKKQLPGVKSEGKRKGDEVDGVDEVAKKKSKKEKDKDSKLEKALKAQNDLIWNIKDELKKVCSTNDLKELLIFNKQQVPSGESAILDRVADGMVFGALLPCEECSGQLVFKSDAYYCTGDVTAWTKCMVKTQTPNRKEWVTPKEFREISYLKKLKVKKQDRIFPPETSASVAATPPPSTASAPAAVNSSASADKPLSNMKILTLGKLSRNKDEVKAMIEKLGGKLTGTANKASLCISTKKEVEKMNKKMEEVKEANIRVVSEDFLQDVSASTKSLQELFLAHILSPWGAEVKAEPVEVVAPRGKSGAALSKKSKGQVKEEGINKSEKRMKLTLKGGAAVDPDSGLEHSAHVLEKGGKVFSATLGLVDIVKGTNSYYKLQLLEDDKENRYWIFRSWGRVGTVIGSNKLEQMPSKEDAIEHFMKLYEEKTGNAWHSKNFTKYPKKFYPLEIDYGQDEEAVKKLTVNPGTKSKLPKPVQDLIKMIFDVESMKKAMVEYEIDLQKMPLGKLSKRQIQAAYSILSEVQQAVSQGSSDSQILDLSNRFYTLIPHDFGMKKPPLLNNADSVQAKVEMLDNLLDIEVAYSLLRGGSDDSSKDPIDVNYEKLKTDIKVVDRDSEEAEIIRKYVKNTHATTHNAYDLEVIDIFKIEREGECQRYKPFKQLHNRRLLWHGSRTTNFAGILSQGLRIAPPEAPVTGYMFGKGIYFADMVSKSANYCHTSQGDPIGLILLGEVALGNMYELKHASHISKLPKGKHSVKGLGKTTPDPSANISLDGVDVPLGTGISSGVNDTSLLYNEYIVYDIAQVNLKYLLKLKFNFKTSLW

**Q.** Which Ki does the source give for `CN1CCC[C@@H]1c1ccc(-c2nc3c(C(N)=O)cccc3[nH]2)s1` [Example 17, 2-(5-((2R)-1-methylpyrrolidin-2-yl)thien-2-yl)-1H-benzimidazole-4-carboxamide] here?
**A.** 10 nM

**Q.** `Cc1nc(-c2cnccn2)sc1-c1nc2c(C(N)=O)cccc2[nH]1` [Example 3, 2-(4-methyl-2-pyrazin-2-yl-1,3-thiazol-5-yl)-H-benzimidazole-4-carboxamide] was tested. Which Ki did it give?
**A.** 28 nM

**Q.** For `NC(=O)c1cccc2[nH]c(-c3ccc(-c4cnco4)nc3)nc12` [Example 50, 2-[6-(1,3-oxazol-5-yl)pyridin-3-yl]-1H-benzimidazole-4-carboxamide], which Ki is on record?
**A.** 0.8 nM

**Q.** With `NC(=O)c1cccc2[nH]c(-c3ccc(C4CCCN4)nc3)nc12` (stereo not shown) [Example 43, 2-(6-pyrrolidin-2-ylpyridin-3-yl)-1H-benzimidazole-4-carboxamide] as the molecule, how does the Ki read?
**A.** 3 nM

**Q.** With `CC(C)N1CCCC1c1ccc(-c2nc3c(C(N)=O)cccc3[nH]2)cn1` (stereo not shown) [Example 44, 2-[6-(1-isopropylpyrrolidin-2-yl)pyridin-3-yl]-1H-benzimidazole-4-carboxamide] as the molecule, how does the Ki read?
**A.** 41 nM

**Q.** For `NC(=O)c1cccc2[nH]c(-c3ccc([C@H]4CCCN4CC4CC4)s3)nc12` [Example 20, 2-(5-((2R)-1-(cyclopropylmethyl)pyrrolidin-2-yl)thien-2-yl)-1H-benzimidazole-4-carboxamide], which Ki is on record?
**A.** 5 nM

**Q.** How did the Ki turn out when `NC(=O)c1cccc2[nH]c(-c3csc(-c4cccnc4)n3)nc12` [Example 1] was run?
**A.** 14.5 nM

**Q.** Which Ki does the source give for `CC(C)N1CCC[C@@H]1c1ccc(-c2nc3c(C(N)=O)cccc3[nH]2)s1` [Example 18, 2-(5-((2R)-1-isopropylpyrrolidin-2-yl)thien-2-yl)-1H-benzimidazole-4-carboxamide] here?
**A.** 6 nM

**Q.** For `NC(=O)c1cccc2[nH]c(-c3ccc(-c4ccccn4)s3)nc12` [Example 10, 2-(5-pyridin-2-ylthien-2-yl)-1H-benzimidazole-4-carboxamide], which Ki is on record?
**A.** 3.1 nM

**Q.** For `NC(=O)c1cccc2[nH]c(-c3csc(C4CCN(C5CCC5)CC4)n3)nc12` [Example 9, 2-(2-(1-cyclobutylpiperidin-4-yl)-1,3-thiazol-4-yl)-1H-benzimidazole-4-carboxamide], which Ki is on record?
**A.** 44 nM

**Q.** For `NC(=O)c1cccc2[nH]c(-c3csc(-c4ccncc4)n3)nc12` [Example 2], which Ki is on record?
**A.** 11.8 nM

**Q.** With `CN1CCC(c2nc(-c3nc4c(C(N)=O)cccc4[nH]3)cs2)CC1` [Example 6, 2-(2-(1-methylpiperidin-4-yl)-1,3-thiazol-4-yl)-1H-benzimidazole-4-carboxamide] as the molecule, how does the Ki read?
**A.** 45 nM

**Q.** `NC(=O)c1cccc2[nH]c(-c3ccc(C4CCCCN4)s3)nc12` (stereo not shown) [Example 28, 2-(5-piperidin-2-ylthien-2-yl)-1H-benzimidazole-4-carboxamide] was tested. Which Ki did it give?
**A.** 7 nM

**Q.** Which Ki does the source give for `NC(=O)c1cccc2[nH]c(-c3ccc(C4CCCN4C4CCCC4)s3)nc12` (stereo not shown) [Example 41, 2-(5-(1-cyclopentylpyrrolidin-2-yl)thien-2-yl)-1H-benzimidazole-4-carboxamide] here?
**A.** 5 nM

**Q.** With `CN1CCCCC1c1ccc(-c2nc3c(C(N)=O)cccc3[nH]2)s1` (stereo not shown) [Example 29, 2-(5-(1-methylpiperidin-2-yl)thien-2-yl)-1H-benzimidazole-4-carboxamide] as the molecule, how does the Ki read?
**A.** 14 nM

**Q.** How did the Ki turn out when `NC(=O)c1cccc2[nH]c(-c3ccc([C@H]4CCCN4Cc4ccncc4)s3)nc12` [Example 26, 2-(5-((2R)-1-(pyridin-4-ylmethyl)pyrrolidin-2-yl)thien-2-yl)-1H-benzimidazole-4-carboxamide] was run?
**A.** 6 nM
